Measured values taken from paper PMC7221154, “Cloning and Expression of Cockroach α7 Nicotinic Acetylcholine Receptor Subunit” (Frontiers in Physiology, 2020).

How the values were obtained:
Pameα7 [1] = biological target: T1, Pameα7 (Periplaneta americana, UniProt A0A5P8U3L1); test: two-electrode voltage clamp, Xenopus oocytes, agonist currents; assay type: cell-based; settings: 10 mM, -80 mV, 0.5 μM atropine, EC50 could not be calculated, unreliable (low currents)
T1 construct: cDNA in pGEM-HEJUEL injected in Xenopus laevis oocytes; homomeric receptor (pentamer by known biology)
T1 sequence (A0A5P8U3L1 42-518): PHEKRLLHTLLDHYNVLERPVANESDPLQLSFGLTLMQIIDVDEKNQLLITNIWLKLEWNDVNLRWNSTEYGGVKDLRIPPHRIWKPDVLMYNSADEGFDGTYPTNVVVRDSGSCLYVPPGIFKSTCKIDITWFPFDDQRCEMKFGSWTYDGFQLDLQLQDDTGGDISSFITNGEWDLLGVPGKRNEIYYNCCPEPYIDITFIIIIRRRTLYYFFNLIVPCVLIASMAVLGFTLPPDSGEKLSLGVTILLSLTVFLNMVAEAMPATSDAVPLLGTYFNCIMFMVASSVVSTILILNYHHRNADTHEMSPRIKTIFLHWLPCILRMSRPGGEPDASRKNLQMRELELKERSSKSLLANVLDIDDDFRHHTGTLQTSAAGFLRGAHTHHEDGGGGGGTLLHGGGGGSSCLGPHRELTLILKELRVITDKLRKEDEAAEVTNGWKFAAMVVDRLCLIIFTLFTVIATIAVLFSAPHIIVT

Pameα7 [2] = biological target: T1, Pameα7; test: as above; assay type: cell-based; settings: cDNA-injected oocytes without RIC-3, -80 mV, 0.5 μM atropine, 20-22 °C, normalized to 10 mM nicotine, unreliable (native currents at 5 and 10 mM nicotine)

Row | Structure (SMILES) | two-electrode voltage clamp, Xenopus oocytes, agonist currents (Pameα7 [1]) | EC50 (Pameα7 [2]) [µM]
1 | CC(=O)OCC[N+](C)(C)C [acetylcholine] | ACh and nicotine induced inward currents | 
2 | CN1CCC[C@H]1c1cccnc1 [nicotine] |  | 790
